Results as given in patent publication US8809367B2, “1-1-Oxo-1,2,3,4-tetrahydroisoquinolin-7-yl)urea derivatives as N-formyl peptide receptor like-1 (FPRL-1) receptor modulators” (Allergan, Inc., priority 2011, dated 2014).

Molecular target: T1, FPRL-1 (Homo sapiens, UniProt P25090)
T1 construct: expressed in transfected cells
T1 sequence (P25090 1-351): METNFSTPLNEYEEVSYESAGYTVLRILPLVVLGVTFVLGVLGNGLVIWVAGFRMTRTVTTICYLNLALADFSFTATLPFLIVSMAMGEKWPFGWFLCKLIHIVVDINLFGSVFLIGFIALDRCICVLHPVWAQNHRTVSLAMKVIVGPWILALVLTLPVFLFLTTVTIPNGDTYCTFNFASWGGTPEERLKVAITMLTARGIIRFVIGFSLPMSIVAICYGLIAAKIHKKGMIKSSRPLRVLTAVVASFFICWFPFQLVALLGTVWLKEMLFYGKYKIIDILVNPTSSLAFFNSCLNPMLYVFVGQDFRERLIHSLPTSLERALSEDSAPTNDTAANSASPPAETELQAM
Assay: compound-induced calcium activity on FLIPR Tetra in CHO-Ga16 cells stably expressing FPRL1
Type: cell-based
Conditions: for FPRL-1 Ga16-CHO (eff): efficacy value in brackets under EC50; for EC50: tested at 0.61 to 10,000 nM
Method: CHO-Ga16 cells stably expressing FPRL1 were cultured in (F12, 10% FBS, 1% PSA, 400 μg/ml geneticin and 50 μg/ml hygromycin) and HEK-Gqi5 cells stable expressing FPR1 were cultured in (DMEM high glucose, 10% FBS, 1% PSA, 400 μg/ml geneticin and 50 μg/ml hygromycin). In general, the day before the experiment, 18,000 cells/well were plated in a 384-well clear bottom poly-d-lysine coated plate. The following day the screening compound-induced calcium activity was assayed on the FLIPR^Tetra. The drug plates were prepared in 384-well microplates using the EP3 and the MultiPROBE robotic liquid handling systems. Compounds were tested at concentrations ranging from 0.61 to 10,000 nM. Results are expressed as EC50 (nM) and efficacy values.

| SMILES | FPRL-1 Ga16-CHO (eff) | EC50 [nM] |
| --- | --- | --- |
| C[S+]([O-])c1ccc(NC(=O)Nc2ccc3c(c2)C(=O)N(CCc2c[nH]cn2)C(c2ccc(F)cn2)C3)cc1 (stereo not drawn) [Compound 31, 1-{3-(5-fluoropyridin-2-yl)-2-[2-(1H-imidazol-4-yl)ethyl]-1-oxo-1,2,3,4-tetrahydroisoquinolin-7-yl}-3-[4-(methylsulfinyl)phenyl]urea] | (0.93) | 11.8 |
| CSc1ccc(NC(=O)Nc2ccc3c(c2)C(=O)N(CCCN)C(c2ccc(C#N)cc2)C3)cc1 (stereo not drawn) [Compound 5, 1-[2-(3-aminopropyl)-3-(4-cyanophenyl)-1-oxo-1,2,3,4-tetrahydroisoquinolin-7-yl]-3-[4-(methylthio)phenyl]urea] | (0.70) | 2.5 |
| CC(=O)c1ccc(NC(=O)Nc2ccc3c(c2)C(=O)N(CCc2c[nH]cn2)C(c2ccc(C#N)cc2)C3)cc1 (stereo not drawn) [Compound 18, 1-(4-acetylphenyl)-3-{3-(4-cyanophenyl)-2-[2-(1H-imidazol-4-yl)ethyl]-1-oxo-1,2,3,4-tetrahydroisoquinolin-7-yl}urea] | (0.80) | 11 |
